Assay results: patent US11198673B2, “Therapeutic compounds and compositions” (eXIthera Pharmaceuticals, Inc., priority 2014, dated 2021)

Columns and labels:
human Factor XIa = biological target: T1, human Factor XIa (Homo sapiens, UniProt P03951); assay: Factor XIa enzyme inhibition assay (IC50, purified enzyme); format: biochemical; conditions: purified enzyme 0.25 nM, substrate 50 μM; read-out: Potency hFXIa IC50
T1 construct: Enzyme: Factor XIa; 0.25 μM in 50% glycerol (20 μg/mL)
Experimental: (§1) • Assay buffer: 20 mM Hepes, pH 7.4; 150 mM NaCl; 0.02% Tween 20 • Compounds: 10 mM stocks in DMSO • Substrate: 20 mM Glp-Pro-Arg-AMC, 25 mg/2.3 mL H2O (store at +4° C.) [Factor XIa, thrombin, and trypsin] • 20 mM Pro-Phe-Arg-AMC (Bachem I-1295), 25 mg/2.2 mL H2O (store at +4° C.) [Factor Xa] • Enzyme: Factor XIa; 0.25 μM in 50% glycerol (20 μg/mL) • Trypsin; 0.2 μM in 50% glycerol (4.8 μg/mL) • Thrombin; 0.2 μM in 50% glycerol (7.34 μg/mL) • Factor Xa; 0.2 μM in 50% glycerol (9.2 μg/mL) • These stocks are aliquoted ([…]) and stored at −20° C. Methods: • 1. Dilute the substrate to 100 μM in assay buffer (30 μL/6 mL). The enzyme is diluted to 0.5 nM just prior to use (12 μL/6 mL for Factor XIa; 15 μL/6 mL for all of the rest.) • 2. Pipette 50 μL of substrate into each well of the 96 well (12×8) microtiter plate. (Column 1 is used as the 100% activity control and receives no compound, and Column 12 is the blank and receives no enzyme.) Add an additional 46 μL to column 2. • 3. Pipette 4 μL of each compound into the appropriate well in column 2 of the plate (unknowns assayed in triplicate, standard assayed in duplicate). The final compound concentration will be 1/50th of the stock. • 4. Serially two-fold dilute the compound by mixing the sample in column 2, removing 50 μL to the next well (column 3), mix and remove to column 4, etc. until column 11. After mixing column 11, remove 50 μL and discard. • 5. Pipette 50 μL of buffer into column 12. Initiate the reaction by adding 50 μL of enzyme solution to each well of columns 1-11 as rapidly as possible. • 6. Read the plate in a spectrophotometer (SpectraMax) at 30° C., wherein each well is measured every 60 s for 30 min. For Factor Xa assays, each well is measured every 1 min for a total of 60 min. • 7. For Factor XIa assays, the compounds are assayed, in duplicate, at 3 different starting concentrations, 20, 2, and 0.2 μM; 1:10, 1:100, and 1:1000 dil'n of 10 mM stock. All data sets are combined for graphing and data fitting. • 8. Data can be used both for estimation of IC50 and for estimation of Kon.
Potential inhibitors of Factor XIa were evaluated using the following assay.
S-2366, pyroGlu-Pro-Arg-7-methylaminocourin (AMC), available from CPC Scientific, Inc., is based on the substrate pyro-Glu-Pro-Arg-pNA, available from Diapharma Group, Inc. (Columbus, Ohio), where the p-nitroanaline group is replaced with 7-methylaminocoumarin (AMC).
The final concentration of the substrate in the assay was 50 μM, and the final concentration of the enzyme was 0.25 nM. Inhibitors were tested by serial dilution over an appropriate range to yield a dose response curve for determination of the inhibitors' IC50 value. The assay mixture was read every minute for 30 minutes in order to generate progress curves. The plates were read in a Spectramax m5 Multimode Plate Reader (Molecular Devices LLC, Sunnyvale, Calif.). Dose response curves were fit to Equation 1 below in which A is the maximum inhibition, B is the minimum inhibition, C is the IC50, and D is the Hill coefficient. [(A−B)/(1+(X/C)^D)]+B (Equation 1)

Factor Xa = biological target: T2, Factor Xa (Homo sapiens, UniProt P00742); assay: Dose response assay for protease inhibitors: Factor Xa (FXIa fold selectivity); format: biochemical; conditions: fold selectivity for FXIa over Factor Xa
T2 construct: Factor Xa; 0.2 μM in 50% glycerol (9.2 μg/mL)
Experimental: as §1

Thrombin = biological target: T3, Thrombin (Homo sapiens, UniProt P00734); assay: Dose response assay for protease inhibitors: thrombin (FXIa fold selectivity); format: biochemical; conditions: fold selectivity for FXIa over thrombin
T3 construct: Thrombin; 0.2 μM in 50% glycerol (7.34 μg/mL)
Experimental: as §1

Trypsin = assay: Dose response assay for protease inhibitors: trypsin (FXIa fold selectivity); format: biochemical; conditions: fold selectivity for FXIa over trypsin
Experimental: as §1

[1] = β-Lactam stability in rat plasma; format: in vitro ADME; conditions: normal rat plasma, room temperature; read-out: Rat Plasma Stability (T1/2; min)
Experimental: Normal rat plasma, stored at −80° C.
• 1. Place 6 μL of each compound into 0.5 mL microcentrifuge tubes or 96-well U-bottom, polypropylene microtiter plate • 2. Place 40 μL of acetonitrile (AcN) into 0.5 mL microcentrifuge tubes labeled 1-9 • 3. Add 114 μL of plasma to each compound • 4. Sample 10 μL of compound/plasma into AcN at 2, 10, 20, 30, 60, 90, 120, 240, and 480 min of incubation at room temperature • 5. Mix each time point after adding sample and place on ice. • 6. Centrifuge time points (12,000 rpm, 3 min), remove 15 μL of the supernatant and mix with 15 μL 0.1% TFA in a V-bottom microtiter plate. • 7. Place microtiter plate in autosampler of HPLC and analyze on Restek Pinnacle C18 column (2.1×100 mm). • 8. Generate extracted ion chromatogram for parent compound and parent compound+18 (H2O). Integrate extracted ion chromatograms (EIC) and plot % total peak area for parent and adduct versus time. Fit to a model of single phase exponential decay [Y=A0*exp(−k*x)+C]. T½ is equal to ln(2)/k.

T2 sequence (P00742 235-488 limits assumed): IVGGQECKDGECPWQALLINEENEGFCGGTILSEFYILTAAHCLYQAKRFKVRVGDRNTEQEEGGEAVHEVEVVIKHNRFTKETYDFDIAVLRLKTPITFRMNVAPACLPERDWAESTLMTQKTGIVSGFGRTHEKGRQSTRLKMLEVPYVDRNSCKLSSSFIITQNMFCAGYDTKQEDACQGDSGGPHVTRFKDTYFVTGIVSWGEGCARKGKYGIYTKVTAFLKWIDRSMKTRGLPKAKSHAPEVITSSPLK
T2 sequence (P00742 41-179 partner limits assumed): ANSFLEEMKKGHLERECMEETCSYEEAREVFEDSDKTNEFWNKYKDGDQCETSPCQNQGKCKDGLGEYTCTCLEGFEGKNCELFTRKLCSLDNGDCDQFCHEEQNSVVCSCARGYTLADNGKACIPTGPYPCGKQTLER
T1 sequence (P03951 388-625 limits assumed): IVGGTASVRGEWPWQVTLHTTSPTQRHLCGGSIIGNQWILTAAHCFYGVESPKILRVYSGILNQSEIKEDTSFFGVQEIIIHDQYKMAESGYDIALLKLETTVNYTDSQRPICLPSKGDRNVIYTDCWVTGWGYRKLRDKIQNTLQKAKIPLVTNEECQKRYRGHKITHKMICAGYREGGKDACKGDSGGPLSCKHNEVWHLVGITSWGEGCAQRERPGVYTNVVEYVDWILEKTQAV
T1 sequence (P03951 19-387 partner limits assumed): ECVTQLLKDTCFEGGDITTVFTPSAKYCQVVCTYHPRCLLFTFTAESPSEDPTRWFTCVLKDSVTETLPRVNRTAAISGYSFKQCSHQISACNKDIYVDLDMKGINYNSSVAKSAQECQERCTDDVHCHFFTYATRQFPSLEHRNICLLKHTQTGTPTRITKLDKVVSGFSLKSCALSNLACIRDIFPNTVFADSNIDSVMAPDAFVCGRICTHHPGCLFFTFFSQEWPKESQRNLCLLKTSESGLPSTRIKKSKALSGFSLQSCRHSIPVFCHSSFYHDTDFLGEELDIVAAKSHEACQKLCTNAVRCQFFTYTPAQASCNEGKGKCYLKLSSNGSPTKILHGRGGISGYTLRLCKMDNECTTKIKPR

Row | IC50 (human Factor XIa) [µM] | FXIa Fold Selectivity FXa (Factor Xa) | FXIa Fold Selectivity Thrombin (Thrombin) | half-life [1] [h] | SMILES | FXIa Fold Selectivity Trypsin (Trypsin)
1 | 0.01 to 0.1 | I (“I” indicates >1000) | I (“I” indicates >1000) | > 1.67 | C[C@@H](NC(=O)N1C(=O)[C@H](Cc2ccnc(N)c2)[C@H]1C(=O)O)c1cccnc1 [Example 40] | I (“I” indicates >1000)
2 | < 0.01 | I (“I” indicates >1000) | I (“I” indicates >1000) | > 1.67 | CC(NC(=O)N1C(=O)[C@H](Cc2ccnc(N)c2)[C@H]1C(=O)O)c1cccc(F)c1 (some centres unmarked) [Example 42] | H (“H” indicates 500-1000)
3 | 0.01 to 0.1 | G (“G” indicates 1-500) | G (“G” indicates 1-500) | > 1.67 | Nc1cc(C[C@H]2C(=O)N(C(=O)NCc3cccc4ccccc34)[C@@H]2C(=O)O)ccn1 [Example 43] | G (“G” indicates 1-500)
4 | < 0.01 | I (“I” indicates >1000) | I (“I” indicates >1000) | > 1.67 | Nc1cc(C[C@H]2C(=O)N(C(=O)N[C@@H](c3ccccc3)C(F)(F)F)[C@@H]2C(=O)O)ccn1 [Example 44] | G (“G” indicates 1-500)
5 | < 0.01 | I (“I” indicates >1000) | I (“I” indicates >1000) | > 1.67 | CC(NC(=O)N1C(=O)[C@H](Cc2ccnc(N)c2)[C@H]1C(=O)O)c1ccc(OC(F)(F)F)cc1 (some centres unmarked) [Example 47] | H (“H” indicates 500-1000)
6 | 0.1 to 1 | G (“G” indicates 1-500) | G (“G” indicates 1-500) | > 1.67 | Nc1cc(C[C@H]2C(=O)N(C(=O)NCc3ccccc3)[C@@H]2C(=O)O)ccn1 [Example 48] | G (“G” indicates 1-500)
7 | < 0.01 | H (“H” indicates 500-1000) | I (“I” indicates >1000) | > 1.67 | C[C@@H](NC(=O)N1C(=O)[C@H](Cc2ccnc(N)c2)[C@H]1C(=O)O)c1cccc(OC(F)(F)F)c1 [Example 49] | G (“G” indicates 1-500)
8 | 0.01 to 0.1 | H (“H” indicates 500-1000) | I (“I” indicates >1000) | > 1.67 | CCCC(CCC)NC(=O)N1C(=O)[C@H](Cc2ccnc(N)c2)[C@H]1C(=O)O [Example 52] | G (“G” indicates 1-500)
9 | 0.01 to 0.1 | G (“G” indicates 1-500) | G (“G” indicates 1-500) | < 1.67 | CON=C[C@@H]1[C@@H](Cc2ccnc(N)c2)C(=O)N1C(=O)N[C@H](C)c1ccccc1 [Example 53] | G (“G” indicates 1-500)
10 | > 1 | G (“G” indicates 1-500) | G (“G” indicates 1-500) | > 1.67 | CNC(=O)N1C(=O)[C@H](Cc2ccnc(N)c2)[C@H]1C(=O)O [Example 55] | G (“G” indicates 1-500)
11 | < 0.01 | G (“G” indicates 1-500) | I (“I” indicates >1000) | > 1.67 | C[C@@H](NC(=O)N1C(=O)[C@H](Cc2ccnc(N)c2)[C@H]1C(=O)O)c1ccc(F)c(F)c1 [Example 68] | I (“I” indicates >1000)
12 | < 0.01 | G (“G” indicates 1-500) | I (“I” indicates >1000) | > 1.67 | CCC[C@@H](NC(=O)N1C(=O)[C@H](Cc2ccnc(N)c2)[C@H]1C(=O)O)c1ccc2c(c1)OC(F)(F)O2 [Example 89] | G (“G” indicates 1-500)
13 | < 0.01 | G (“G” indicates 1-500) | I (“I” indicates >1000) | > 1.67 | CNc1cc(C[C@H]2C(=O)N(C(=O)N[C@H](C)c3ccc4c(c3)OC(F)(F)O4)[C@@H]2C(=O)O)ccn1 [Example 98] | I (“I” indicates >1000)
14 | < 0.01 | I (“I” indicates >1000) | I (“I” indicates >1000) | < 1.67 | CCOC(=O)[C@@H]1[C@@H](Cc2ccnc(NC)c2)C(=O)N1C(=O)N[C@H](C)c1ccc2c(c1)OC(F)(F)O2 [Example 99] | G (“G” indicates 1-500)
15 | < 0.01 | I (“I” indicates >1000) | H (“H” indicates 500-1000) | < 1.67 | CCOC(=O)[C@@H]1[C@@H](Cc2ccnc(N)c2)C(=O)N1C(=O)N[C@H](C)c1ccc(OC(F)(F)F)cc1 [Example 103] | G (“G” indicates 1-500)
16 | < 0.01 | I (“I” indicates >1000) | I (“I” indicates >1000) | > 1.67 | C[C@@H](NC(=O)N1C(=O)[C@H](Cc2ccnc(N)c2)[C@H]1C(=O)O)C1CCCCCCC1 [Example 104] | I (“I” indicates >1000)
17 | 0.1 to 1 | G (“G” indicates 1-500) | G (“G” indicates 1-500) | > 1.67 | O=C(O)[C@@H]1[C@@H](Cc2ccncc2)C(=O)N1C(=O)NC(c1ccccc1)c1ccccc1 [Example 123] | G (“G” indicates 1-500)
18 | 0.1 to 1 | G (“G” indicates 1-500) | G (“G” indicates 1-500) | > 1.67 | C[C@H](NC(=O)N1C(=O)[C@H](Cc2ccnc(N)c2)[C@H]1C(=O)O)c1ccc2c(c1)OC(F)(F)O2 [Example 130] | G (“G” indicates 1-500)
19 | 0.1 to 1 | G (“G” indicates 1-500) | G (“G” indicates 1-500) | < 1.67 | CCOC(=O)[C@@H]1C(Cc2ccnc(Cl)c2)C(=O)N1C(=O)N[C@H](C)c1ccc2c(c1)OC(F)(F)O2 (some centres unmarked) [Example 132] | G (“G” indicates 1-500)
